Measured values published in article PMC5876388 (Scientific Reports, 2018).
pIC50: −log10 of the molar value. “Also recorded” adds a separate entry of the source. Read-outs that look alike come from different tables or passages of the source.

Legend:
[1] = system: Notch signaling (LS174T Notch cells); assay: Notch signaling transcriptional activity assay (luciferase reporter, T-REx system); format: cell-based; details: for pIC50: read-out: IC50 of Notch signal inhibitory activity (luciferase)
Source text: We constructed a cell-based reporter assay with the T-Rex system to evaluate Notch signaling inhibitory activity. Without doxycycline (Dox), the tetracycline repressor (TetR) inhibits the expression of N-terminally FLAG-tagged mouse Notch1(1704–2531), which is 40 aa longer than NICD at the N-terminus. In the presence of Dox, Dox binds to the TetR to release the inhibition of expression of Notch1(1704–2531). Cleavage of Notch1(1704–2531) by γ-secretase generates NICD, which then translocates to the nucleus and forms a heterotrimer with RBP-J driving luciferase transcription (Fig. 2). This assay cells (LS174T Notch cells) was stably incorporated with pGL4.20 luciferase plasmid which has 12 × RBP-J binding site (12 copies of […])-β-globin promoter. Cell viability was measured using a fluorometric microculture cytotoxicity assay. […] The composition of the G. speciosa MeOH extract was partitioned successively with hexane, EtOAc, nBuOH, and water.
Figure 2 The T-REx assay system. Without Dox, expression of Notch1(1704–2531) is suppressed by TetR. The addition of Dox inactivates TetR to initiate expression of Notch1(1704–2531), which is then cleaved by endogenous γ-secretase to form NICD. NICD then translocates to the nucleus and forms a heterotrimer with RBP-J and MAML that binds to a 12× RBP-J binding site to drive luciferase expression. Luciferase activity was detected as Notch signaling pathway activity. Dox: doxycycline, TetR: tetracycline repressor, Luc.: luciferase.
Assay cells (LS174T Notch cells: 2 × 10^4 cells/well) were incubated in a 96-well white plate at 37 °C for 12 h. After incubation, 50 ng/mL Dox was added to each well to induce expression of exogenous Notch1(1704–2531) protein. After incubation at 37 °C for 12 h, the medium was changed to Dox-free medium containing individual samples. Luciferase activity was measured after treatment at 37 °C for 12 h. Cell viability was evaluated by the FMCA method at the same time. These assays were performed in 0.1% DMSO (n = 3). Error bars represent SD.
In a 96-well white plate, Cells (LS174T Notch cells; 2 × 10^4 cells per well) were cultured at 37 °C for 12 h. To express Notch1(1704–2531) protein in the cells, doxycycline (50 ng/mL) was added to each well, and cells were cultured at 37 °C for 12 h. Medium was changed to doxycycline-free medium containing each sample, then cells were incubated with at 37 °C for 12 h. A microplate luminometer (Thermo Fisher Scientific Inc., Waltham, USA) and the Bright-Glo™ Luciferase Assay System (Promega Co., Madison, USA) were used for measurement of Luciferase activity. Fluorometric Microculture Cytotoxicity Assay (FMCA) was used for measurement of cell viability of the sample-treated cells. After incubation of assay cells (2×10^4 cells per well) in a 96-well black plate at 37 °C for 24 h, samples addition was performed at the same time as the luciferase assay. The assay cells were cultures at 37 °C for 12 h. A fluorescence plate reader (Thermo Fisher Scientific Inc., Waltham, USA) was used for determination of cell viability by FMCA.

[2] = system: HPB-ALL cells; assay: Cytotoxicity test, AlamarBlue
Experimental: HPB-ALL cells (1 × 10^4 cells per well) were incubated in 96-well black plates at 37 °C for 72 h. Media also contained different concentrations of compound. After incubation, AlamarBlue was added 10 μL per well. After incubation for 4 h, using a fluorescence plate reader, fluorescence was measured and cell viability was determined. Data are presented as the mean with SD from three independent experiments. […] The effect on protein expression was analyzed by Western blotting. β-Actin was used as internal control. (D,E) Relative protein levels of NICD and HES1 analyzed by densitometry. Data are presented as the mean with SD from three independent experiments. *P < 0.05 is considered statistically significant. P values were analyzed by Student’s t test.
HPB-ALL cells (1 × 10^4 cells per well) were incubated in 96-well black plates in 100 μL of RPMI-1640 medium with 10% FBS, Streptomycin (100 μg/mL) and Penicillin (100 unit/mL). Media also contained different concentrations of compound. Cells were incubated at 37 °C for 72 h. After incubation, AlamarBlue (00–025, DAL1025; Thermo Fisher Scientific Inc., Waltham, USA) was added 10 μL per well. After incubation for 4 h, using a fluorescence plate reader (Thermo Fisher Scientific Inc., Waltham, USA), fluorescence was measured and cell viability was determined.

[3] = Homo sapiens, LS174T Notch cells, 12 h treatment after Dox induction
[4] = LS174T Notch cells, 12 h treatment after Dox induction

| Structure (SMILES) | pIC50 [1, 3] | IC50 of Notch signal inhibitory activity (luciferase) [1, 4] | also measured |
| --- | --- | --- | --- |
| COc1cc2oc3cc(O)c(OC)c(CC=C(C)C)c3c(=O)c2c(O)c1CC=C(C)C [Compound 7, β-mangostin] | 5.12 | – | – |
| COc1c(O)cc2oc3cc4c(c(O)c3c(=O)c2c1CC=C(C)C)C=CC(C)(C)O4 [Compound 9, 9-hydroxycalabaxanthone] | 4.71 | – | – |
| C[C@H](NC(=O)Cc1cc(F)cc(F)c1)C(=O)N[C@H](C(=O)OC(C)(C)C)c1ccccc1 [DAPT, N-[N-(3,5-difluorophenacetyl)-L-alanyl]-S-phenylglycine t-butyl ester, reference compound] | – | – | pIC50 [1, 4]: 6.92; pIC50 [2]: < 4.70 |
| COc1cc2oc3cc(O)c(CC=C(C)C)c(O)c3c(=O)c2c(CC=C(C)C)c1OC [Compound 10, cowaxanthone B] | 4.82 | – | – |
| COc1c(O)cc2oc3cc(O)c(C/C=C(/C)CO)c(O)c3c(=O)c2c1C/C=C(\C)CCC=C(C)C [Compound 3, cowanol] | – | – | pIC50 ([1]; Homo sapiens, LS174T, 12 h): 5.14 |
| C=C(C)c1cc2c(O)c3c(=O)c4c(CC=C(C)C)c(OC)c(O)cc4oc3cc2o1 [Compound 12] | – | weak activity or were inactive; also recorded: inactive | – |
| COc1cc2oc3cc(O)c(CC=C(C)C)c(O)c3c(=O)c2c(CC=C(C)C)c1O [Compound 8, 6-methoxy-γ-mangostin] | < 4.40 | weak activity or were inactive | – |
| CC(C)=CCC/C(C)=C/Cc1c(O)c(O)cc2oc3cc(O)c(CC=C(C)C)c(O)c3c(=O)c12 [Compound 4, norcowanin] | 4.98 | – | – |
| COc1c(O)cc2oc3cc(O)cc(O)c3c(=O)c2c1C/C=C(\C)CCC=C(C)C [Compound 5, rubraxanthone] | < 4.40 | weak activity or were inactive | – |
| COc1cc2c(=O)c3c(O)c(C/C=C(\C)CCC=C(C)C)c(O)cc3oc2cc1O [Compound 6, cowaxanthone] | – | weak activity or were inactive; also recorded: inactive | – |
| COc1c(O)cc2oc3cc4c(c(O)c3c(=O)c2c1C/C=C(\C)CCC=C(C)C)C=CC(C)(C)O4 [Compound 11, fuscaxanthone A] | 4.93 | – | – |
| COc1c(O)cc2oc3cc(O)c(CC=C(C)C)c(O)c3c(=O)c2c1CC=C(C)C [Compound 1, α-mangostin] | 5.10 | – | – |
